Measurements published in US12685776B2, “Arginine methyltransferase 5 (PRMT5) degraders and uses thereof” (DANA-FARBER CANCER INSTITUTE, INC., priority 2020, dated 2026).

How the values were obtained:
[1] = system: A427 cells; experiment: Cell-proliferation assay (CellTiter-Glo 2.0) in A427 cells; format: cell-based; conditions: FIG. 3A
Procedure: (§1) Inventive bifunctional compounds 1 and 2 were tested in the A427 (anon-small cell lung cancer (NSCLC) cell line) and H661(human lung large cell carcinoma) cells. CellTiter-Glo® 2.0 Cell Viability Assay (Promega™) was used to measure cell growth (proliferation) inhibition and to report the ATP level reduction in cells after treatment with the bifunctional compounds.

[2] = system: H661 cells; experiment: Cell-proliferation assay (CellTiter-Glo 2.0) in H661 cells; format: cell-based, human; conditions: FIG. 3B
Procedure: as §1

[3] = molecular target: PRMT5/MEP50 (Homo sapiens, UniProt O14744); experiment: PRMT5 activity inhibition, AlphaLISA assay; format: biochemical; conditions: PRMT5/MEP50 with biotinylated histone tail, FIG. 2A
Procedure: PMRT5 inhibition in HEK 293 WT cells was determined by AlphaLISA® assay (PerkinElmer®) according to manufacturer's instructions. The biotinylated Histone 4 […] histone tail was incubated with PRMT5/MEP50 and inventive bifunctional compounds 1-9, cereblon-based bifunctional compound PRMT5-58, PRMT5 inhibitors EPZ15666 and LLY-283 and RPN13 inhibitor RA190. Then the H4R3symetric Me2 antibody coated beads together with streptavidin beads were incubated together. Assays were processed by EnVision® multimode plate reader (PerkinElmer®).

[4] = molecular target: T1, RPN13 (Homo sapiens, UniProt Q16186); experiment: Immunoblot analysis of HL60 cells, RPN13 degradation; format: cell-based; conditions: 24 hours, FIG. 4B
T1 construct: endogenous in cells; host or cells: HL60
Procedure: (§2) FIG. 4B is an image showing an immunoblot analysis of HL60 cells treated with different concentrations (μM) of inventive bifunctional compound 14 for 24 hours.
(§3) Protein lysates were subjected to immunoblot analysis using anti-Rpn13, anti-betaActin, anti-H4R3Me2s, anti-H3, anti-RPN1 and anti-RPN10.

[5] = molecular target: T2, PRMT5 (Homo sapiens, UniProt O14744); experiment: Immunoblot analysis of HL60 cells, PRMT5 degradation; format: cell-based; conditions: 24 hours, FIG. 4B
T2 construct: endogenous in cells; host or cells: HL60
Procedure: as §2, §3

[6] = system: HL60 cells; experiment: Immunoblot analysis of HL60 cells, blotted targets; format: cell-based; conditions: FIG. 4A
Procedure: FIG. 4A is an image showing an immunoblot analysis of HL60 cells treated with different concentrations (μM) of inventive bifunctional compound 13 for 24 hours and 48 hours.
as §3

T2 sequence (O14744 whole entry): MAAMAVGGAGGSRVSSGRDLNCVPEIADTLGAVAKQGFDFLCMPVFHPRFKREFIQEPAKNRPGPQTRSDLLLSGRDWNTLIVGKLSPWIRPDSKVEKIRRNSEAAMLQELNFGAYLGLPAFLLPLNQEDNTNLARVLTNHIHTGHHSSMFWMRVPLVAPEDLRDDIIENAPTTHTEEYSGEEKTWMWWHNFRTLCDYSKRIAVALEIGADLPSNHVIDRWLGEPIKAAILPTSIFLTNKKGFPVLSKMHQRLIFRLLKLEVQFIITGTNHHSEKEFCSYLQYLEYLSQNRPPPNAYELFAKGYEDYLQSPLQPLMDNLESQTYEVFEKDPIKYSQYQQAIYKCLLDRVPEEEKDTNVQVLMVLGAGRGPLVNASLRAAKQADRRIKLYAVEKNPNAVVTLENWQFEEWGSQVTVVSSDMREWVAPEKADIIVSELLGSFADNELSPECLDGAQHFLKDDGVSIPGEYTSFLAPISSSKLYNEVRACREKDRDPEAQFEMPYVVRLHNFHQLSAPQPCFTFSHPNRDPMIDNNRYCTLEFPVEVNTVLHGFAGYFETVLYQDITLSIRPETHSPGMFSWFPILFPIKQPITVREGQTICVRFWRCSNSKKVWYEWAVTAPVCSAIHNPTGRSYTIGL
T2 sequence (Q9BQA1 whole entry partner): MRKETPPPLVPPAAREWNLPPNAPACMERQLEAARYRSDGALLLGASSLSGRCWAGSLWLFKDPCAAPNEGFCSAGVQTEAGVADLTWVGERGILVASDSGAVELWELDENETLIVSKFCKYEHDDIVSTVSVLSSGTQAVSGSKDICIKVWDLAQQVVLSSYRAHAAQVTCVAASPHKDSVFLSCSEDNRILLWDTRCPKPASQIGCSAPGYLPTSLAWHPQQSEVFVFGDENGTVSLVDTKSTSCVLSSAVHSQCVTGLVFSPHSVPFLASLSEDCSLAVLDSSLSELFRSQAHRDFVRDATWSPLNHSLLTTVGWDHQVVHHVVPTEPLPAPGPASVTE
T1 sequence (Q16186 whole entry): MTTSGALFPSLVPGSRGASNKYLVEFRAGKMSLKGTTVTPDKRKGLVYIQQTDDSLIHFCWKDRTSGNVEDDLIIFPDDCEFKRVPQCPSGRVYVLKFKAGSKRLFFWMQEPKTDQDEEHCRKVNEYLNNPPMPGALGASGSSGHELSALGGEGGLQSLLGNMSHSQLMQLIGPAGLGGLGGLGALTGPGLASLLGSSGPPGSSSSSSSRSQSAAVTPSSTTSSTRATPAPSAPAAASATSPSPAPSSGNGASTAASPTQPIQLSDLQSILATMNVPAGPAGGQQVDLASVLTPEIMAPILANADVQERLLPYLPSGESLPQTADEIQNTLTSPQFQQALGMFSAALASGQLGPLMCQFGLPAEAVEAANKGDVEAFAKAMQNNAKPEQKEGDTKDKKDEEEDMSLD
Sequence of PRMT5/MEP50 (O14744 whole entry): as the sequence (O14744 whole entry) above
Sequence of PRMT5/MEP50 (Q9BQA1 whole entry partner): as the sequence (Q9BQA1 whole entry partner) above

## O=C(CCCC(=O)N[C@@H](Cc1ccccc1)C(=O)N1C/C(=C\c2ccc(Cl)c(Cl)c2)C(=O)/C(=C/c2ccc(Cl)c(Cl)c2)C1)NCCCC(=O)N1CC(Nc2cc(C(=O)NC[C@H](O)CN3CCc4ccccc4C3)ncn2)C1 [Compound 1, N1-((S)-1-(3,5-bis((E)-3,4-dichlorobenzylidene)-4-oxopiperidin-1-yl)-1-oxo-3-phenylpropan-2-yl)-N5-(4-(3-((6-(((S)-3-(3,4-dihydroisoquinolin-2(1H)-yl)-2-hydroxypropyl)carbamoyl)pyrimidin-4-yl)amino)azetidin-1-yl)-4-oxobutyl)glutaramide]
[1]
  inhibition of cell growth (proliferation): effectively inhibited growth
[2]
  inhibition of cell growth (proliferation): effectively inhibited growth
[3]
  PRMT5 activity inhibition: successfully inhibited PRMT5 function

## O=C(CCCC(=O)N1CCC(Nc2cc(C(=O)NC[C@@H](O)CN3CCc4ccccc4C3)ncn2)CC1)N[C@@H](Cc1ccccc1)C(=O)N1C/C(=C\c2ccc(Cl)c(Cl)c2)C(=O)/C(=C/c2ccc(Cl)c(Cl)c2)C1 [Compound 14, 6-((1-(5-(((S)-1-(3,5-bis((E)-3,4-dichlorobenzylidene)-4-oxopiperidin-1-yl)-1-oxo-3-phenylpropan-2-yl)amino)-5-oxopentanoyl)piperidin-4-yl)amino)-N-((R)-3-(3,4-dihydroisoquinolin-2(1H)-yl)-2-hydroxypropyl)pyrimidine-4-carboxamide]
[4]
  concentration resulting in degradation of RPN13: 1 µM
  concentration with complete loss of RPN13: 3 µM
[5]
  concentration resulting in degradation of PRMT5: 1 µM
  concentration with complete loss of PRMT5: 3 µM

## O=C(CNc1cc(C(=O)NC[C@H](O)CN2CCc3ccccc3C2)ncn1)NCCCCCCC(=O)N[C@@H](Cc1ccccc1)C(=O)N1C/C(=C\c2ccc([N+](=O)[O-])cc2)C(=O)/C(=C/c2ccc([N+](=O)[O-])cc2)C1 [Compound 13, 6-((2-((7-(((S)-1-(3,5-bis((E)-4-nitrobenzylidene)-4-oxopiperidin-1-yl)-1-oxo-3-phenylpropan-2-yl)amino)-7-oxoheptyl)amino)-2-oxoethyl)amino)-N-((S)-3-(3,4-dihydroisoquinolin-2(1H)-yl)-2-hydroxypropyl)pyrimidine-4-carboxamide]
[6]; 24 and 48 hours
  degradation of blotted targets: minimum degradation
[6]
  concentration tolerated in the cell: up to 10 μM
